According to patent US20080113014A1, “Method for Screening for Compounds Safe for Gastric Mucosa” (LTT BIO-PHARMA CO., LTD., priority 2004, published 2008):

Experiments:
gastric mucosal cells = test: Cytotoxicity of NSAIDs to gastric mucosal cells; assay type: cell-based; settings: order among the five NSAIDs of the same figure (FIG. 3 or FIG. 4)
Description: Specifically, the cytotoxicity of 10 clinically used NSAIDs as measured by the decrease in cell viability (i.e., cytotoxicity due to necrosis/apoptosis as measured by the decrease in cell viability) was compared to their membrane toxicity determined by the liposome model.

[1] = Calcein leakage from calcein-encapsulating liposome in the presence of NSAIDs (membrane toxicity); settings: 30° C., 10 min, fluorescence at 520 nm; order among the five NSAIDs of the same figure
[2] = Calcein leakage from liposome in the presence of an NSAID and the gastric mucosa-protecting agent teprenone; settings: for calcein leakage from liposome in the presence of NSAID and teprenone: teprenone 0, 10^-7 to 10^-4 M, 30° C., 10 min
Description: Teprenone (product name, Selbex (registered trademark)) was used as the gastric mucosa-protecting agent and was used at concentrations of 0 M (Control), 10^−7 M, 10^−6 M, 10^−5 M and 10^−4 M.
Each NSAID and teprenone at respective concentrations were added to the liposome solution obtained in Example 1. Each solution was incubated at 30° C. for 10 min. Subsequently, the fluorescence at 520 nm was measured for each solution to determine the calcein leakage from liposome (i.e., membrane toxicity).

Cc1ccc(-c2cc(C(F)(F)F)nn2-c2ccc(S(N)(=O)=O)cc2)cc1 [celecoxib]
cytotoxicity to gastric mucosal cells (rank order) (gastric mucosal cells): celecoxib>mefenamic acid>flufenamic acid>nimesulide>etodolac

COc1ccc2c(c1)c(CC(=O)O)c(C)n2C(=O)c1ccc(Cl)cc1 [indomethacin]
cytotoxicity to gastric mucosal cells (rank order) (gastric mucosal cells): indomethacin>diclofenac>flurbiprofen>ibuprofen>ketoprofen

O=C(O)c1ccccc1Nc1cccc(C(F)(F)F)c1 [flufenamic acid]
cytotoxicity to gastric mucosal cells (rank order) (gastric mucosal cells): celecoxib>mefenamic acid>flufenamic acid>nimesulide>etodolac | calcein leakage from the liposome (membrane toxicity), rank order [1]: decreased in the same order

teprenone
calcein leakage from liposome in the presence of NSAID and teprenone (repeat experiment) ([2]; 0.05 mM and 0.1 mM celecoxib): reduced the calcein leakage from the liposome | calcein leakage from liposome in the presence of NSAID and teprenone ([2]; 0.08 mM celecoxib): the calcein leakage decreases as the amount of teprenone is increased | calcein leakage from liposome in the presence of NSAID and teprenone (repeat experiment) ([2]; 2 mM and 10 mM diclofenac): reduced the calcein leakage from the liposome | calcein leakage from liposome in the presence of NSAID and teprenone (repeat experiment) ([2]; 4 mM and 8 mM indomethacin): reduced the calcein leakage from the liposome | calcein leakage from liposome in the presence of NSAID and teprenone ([2]; 4 mM diclofenac): the calcein leakage decreases as the amount of teprenone is increased | calcein leakage from liposome in the presence of NSAID and teprenone ([2]; 6 mM indomethacin): the calcein leakage decreases as the amount of teprenone is increased | calcein leakage from liposome in the presence of NSAID and teprenone ([2]; 20 mM ibuprofen): the calcein leakage decreases as the amount of teprenone is increased | calcein leakage from liposome in the presence of NSAID and teprenone (repeat experiment) ([2]; 40 mM and 60 mM ibuprofen): reduced the calcein leakage from the liposome

CCc1cccc2c3c([nH]c12)C(CC)(CC(=O)O)OCC3 (stereo not drawn) [etodolac]
cytotoxicity to gastric mucosal cells (rank order) (gastric mucosal cells): celecoxib>mefenamic acid>flufenamic acid>nimesulide>etodolac

Cc1cccc(Nc2ccccc2C(=O)O)c1C [mefenamic acid]
cytotoxicity to gastric mucosal cells (rank order) (gastric mucosal cells): celecoxib>mefenamic acid>flufenamic acid>nimesulide>etodolac

CC(C(=O)O)c1cccc(C(=O)c2ccccc2)c1 (stereo not drawn) [ketoprofen]
calcein leakage from the liposome (membrane toxicity), rank order [1]: decreased in the same order

CS(=O)(=O)Nc1ccc([N+](=O)[O-])cc1Oc1ccccc1 [nimesulide]
cytotoxicity to gastric mucosal cells (rank order) (gastric mucosal cells): celecoxib>mefenamic acid>flufenamic acid>nimesulide>etodolac

O=C(O)Cc1ccccc1Nc1c(Cl)cccc1Cl [diclofenac]
cytotoxicity to gastric mucosal cells (rank order) (gastric mucosal cells): indomethacin>diclofenac>flurbiprofen>ibuprofen>ketoprofen

CC(C(=O)O)c1ccc(-c2ccccc2)c(F)c1 (stereo not drawn) [flurbiprofen]
cytotoxicity to gastric mucosal cells (rank order) (gastric mucosal cells): indomethacin>diclofenac>flurbiprofen>ibuprofen>ketoprofen
